In ChEMBL document CHEMBL4304792, “Cinnamonitrile Adjuvants Restore Susceptibility to β-Lactams against Methicillin-Resistant Staphylococcus aureus” (ACS Med Chem Lett, 2019):
Values after ≈ are worked out from the molar mass of the structure shown.

Tests used:
[1] = tested on: Staphylococcus aureus; assay: Potentiation of oxacillin induced antibacterial activity against Staphylococcus aureus NRS70 assessed as oxacillin MIC at 20 uM measured after 16 to 20 hrs in presence of 2% NaCl by microdilution broth method (reference value: 64 mg/L); type: functional
[2] = tested on: Staphylococcus aureus; assay: Antibacterial activity against Staphylococcus aureus NRS70 measured after 16 to 20 hrs in absence of 2% NaCl by microdilution broth method

Compound	MIC [1]	MIC [2]
CS(=O)(=O)/C(C#N)=C/c1cc(-c2cnc3ccccc3n2)ccc1F	64 µg/mL	≥ 64 µg/mL
N#CC(C#N)=Cc1ccc(Oc2ccc(Cl)cc2)cc1	64 µg/mL	32 µg/mL (≈ 114 µM)
COc1ccc(Cc2ccc(OC(F)(F)F)c(/C=C(\C#N)S(C)(=O)=O)c2)cc1OC	64 µg/mL	≥ 64 µg/mL
N#CC(C#N)=Cc1cccc(Cc2cc(F)c(F)cc2F)c1	64 µg/mL	≥ 64 µg/mL
N#CC(C#N)=Cc1cccc(C(=O)Nc2ccc(Cl)c(Cl)c2)c1	16 µg/mL	≥ 64 µg/mL
N#C/C(=C\c1cc(Cc2ccc(Cl)c(Cl)c2)ccc1F)C(=O)C1CC1	1 µg/mL	≥ 64 µg/mL
N#C/C(=C\c1cccc(Oc2ccc(Cl)c(Cl)c2)c1)c1ccccn1	64 µg/mL	≥ 64 µg/mL
N#CC(C#N)=Cc1cccc(Cc2ccc(Cl)c(F)c2)c1	64 µg/mL	≥ 64 µg/mL
CS(=O)(=O)/C(C#N)=C/c1cc(Cc2ccc(F)c(C(F)(F)F)c2)ccc1F	64 µg/mL	≥ 64 µg/mL
N#CC(C#N)=Cc1cccc(Oc2cc(Cl)cc(Cl)c2)c1	64 µg/mL	16 µg/mL (≈ 50.8 µM)
N#CC(C#N)=Cc1cccc(Oc2ccc(Cl)cc2)c1	64 µg/mL	32 µg/mL (≈ 114 µM)
CS(=O)(=O)/C(C#N)=C/c1cc(Cc2ccc(C(F)(F)F)c(F)c2)ccc1F	64 µg/mL	32 µg/mL (≈ 79.7 µM)
CS(=O)(=O)/C(C#N)=C/c1cc(Cc2ccc(C(F)(F)F)cc2)ccc1F	64 µg/mL	32 µg/mL (≈ 83.5 µM)
N#CC(C#N)=Cc1cccc(Oc2ccc(Cl)nn2)c1	64 µg/mL	≥ 64 µg/mL
COc1c(/C=C(\C#N)S(C)(=O)=O)cccc1Cc1ccc(Cl)c(Cl)c1	8 µg/mL	32 µg/mL (≈ 80.7 µM)
CS(=O)(=O)/C(C#N)=C/c1cc(Cc2ccc(F)c(F)c2)ccc1F	64 µg/mL	≥ 64 µg/mL
Cc1ccc(C(=O)/C(C#N)=C/c2cccc(Oc3ccc(Cl)c(Cl)c3)c2)cc1	64 µg/mL	≥ 64 µg/mL
CS(=O)(=O)/C(C#N)=C/c1cc(Cc2ccc3c(c2)OCO3)ccc1OC(F)(F)F	64 µg/mL	32 µg/mL (≈ 75.2 µM)
CCOc1ccc(Cc2ccc(Cl)c(Cl)c2)cc1/C=C(\C#N)S(C)(=O)=O	16 µg/mL	≥ 64 µg/mL
CC(C)NC(=O)c1ccc(Cc2ccc(F)c(/C=C(\C#N)S(C)(=O)=O)c2)cc1	64 µg/mL	≥ 64 µg/mL

Compound	MIC [1]	MIC [2]
N#C/C(=C\c1cccc(Oc2ccc(Cl)c(Cl)c2)c1)c1ccncc1	64 µg/mL	≥ 64 µg/mL
COc1ccc(Cc2ccc(Cl)c(Cl)c2)cc1C=C(C#N)C#N	4 µg/mL	≥ 64 µg/mL
CC(=C(C#N)C#N)c1cccc(Cc2ccc(Cl)c(Cl)c2)c1	64 µg/mL	≥ 64 µg/mL
COc1ccc(Cc2ccc(Cl)c(Cl)c2)cc1/C=C(\C#N)S(C)(=O)=O	4 µg/mL	32 µg/mL (≈ 80.7 µM)
N#CC(C#N)=Cc1cccc(Oc2cccc(C(F)(F)F)c2)c1	64 µg/mL	32 µg/mL (≈ 102 µM)
COc1ccc(Cc2ccc(F)c(/C=C(\C#N)S(C)(=O)=O)c2)cc1C(F)(F)F	64 µg/mL	≥ 64 µg/mL
N#C/C(=C\c1cccc(Oc2ccc(Cl)c(Cl)c2)c1)c1cccs1	64 µg/mL	≥ 64 µg/mL
CS(=O)(=O)/C(C#N)=C/c1cccc(-c2ccc(Cl)c(Cl)c2)n1	16 µg/mL	32 µg/mL (≈ 90.6 µM)
COc1ccc(C=C(C#N)C#N)cc1Oc1ccc(Cl)c(Cl)c1	64 µg/mL	≥ 64 µg/mL
CS(=O)(=O)/C(C#N)=C/c1cccc(Cc2ccc(Cl)c(Cl)c2)c1F	2 µg/mL	8 µg/mL (≈ 20.8 µM)
CS(=O)(=O)/C(C#N)=C/c1cc(Cc2cccc(OC(F)(F)F)c2)ccc1F	64 µg/mL	≥ 64 µg/mL
CS(=O)(=O)/C(C#N)=C/c1cc(-c2ccnc3ccccc23)ccc1F	64 µg/mL	≥ 64 µg/mL
Cc1ccc(Oc2cccc(C=C(C#N)C#N)c2)cc1	64 µg/mL	≥ 64 µg/mL
N#CC(C#N)=Cc1cccc(S(=O)(=O)c2ccc(Cl)c(Cl)c2)c1	64 µg/mL	16 µg/mL (≈ 44 µM)
N#C/C(=C\c1cccc(Oc2ccc(Cl)c(Cl)c2)c1)c1nc2ccccc2s1	64 µg/mL	≥ 64 µg/mL
N#CC(C#N)=Cc1cccc(Cc2ccc(F)c(Cl)c2)c1	64 µg/mL	≥ 64 µg/mL
CS(=O)(=O)/C(C#N)=C/c1cc(Cc2cccc(C(F)(F)F)c2)ccc1F	64 µg/mL	≥ 64 µg/mL
COc1ccc(Cc2ccc(Cl)c(Cl)c2)c(OC)c1/C=C(\C#N)S(C)(=O)=O	64 µg/mL	16 µg/mL (≈ 37.5 µM)
CS(=O)(=O)/C(C#N)=C/c1cc(Cc2ccc(OC(F)(F)F)cc2)ccc1F	64 µg/mL	≥ 64 µg/mL
CS(=O)(=O)/C(C#N)=C/c1cc(Cc2ccc(SC(F)(F)F)cc2)ccc1F	64 µg/mL	≥ 64 µg/mL

Compound	MIC [1]	MIC [2]
COc1ccc(OC)c(Cc2cccc(C=C(C#N)C#N)c2)c1	64 µg/mL	≥ 64 µg/mL
N#CC(C#N)=Cc1cccc(Oc2ncc(Cl)c(Cl)n2)c1	64 µg/mL	≥ 64 µg/mL
CS(=O)(=O)/C(C#N)=C/c1cc(-c2ccc3ccccc3n2)ccc1F	64 µg/mL	≥ 64 µg/mL
N#CC(C#N)=Cc1cccc(Cc2cccc(Cl)c2)c1	64 µg/mL	≥ 64 µg/mL
N#C/C(=C\c1cccc(Oc2ccc(Cl)c(Cl)c2)c1)C(N)=O	64 µg/mL	8 µg/mL (≈ 24 µM)
N#CC(C#N)=Cc1cc(Cc2ccc(Cl)c(Cl)c2)ccc1F	4 µg/mL	8 µg/mL (≈ 24.2 µM)
CS(=O)(=O)/C(C#N)=C/c1cccc(Oc2ccc(Cl)c(Cl)c2)c1	64 µg/mL	16 µg/mL (≈ 43.4 µM)
N#CC(C#N)=Cc1cccc(Cc2ccc(Cl)c(Cl)c2)c1F	2 µg/mL	8 µg/mL (≈ 24.2 µM)
N#CC(C#N)=Cc1cccc(Oc2ccc(Cl)c(Cl)c2)c1	64 µg/mL	32 µg/mL (≈ 102 µM)
N#CC(C#N)=Cc1cccc(Oc2ccccc2)c1	64 µg/mL	32 µg/mL (≈ 130 µM)
CS(=O)(=O)/C(C#N)=C/c1cc(Cc2ccc(Cl)c(Cl)c2)ccc1N1CCOCC1	16 µg/mL	≥ 64 µg/mL
N#CC(C#N)Cc1cccc(Oc2ccc(Cl)c(Cl)c2)c1	64 µg/mL	32 µg/mL (≈ 101 µM)
N#CC(C#N)=Cc1cccc(Cc2ccc(Cl)c(Cl)c2)c1	64 µg/mL	≥ 64 µg/mL
COc1ccc(Oc2cccc(C=C(C#N)C#N)c2)cc1	64 µg/mL	≥ 64 µg/mL
N#CC(C#N)=Cc1cccc(Sc2ccc(Cl)c(Cl)c2)c1	64 µg/mL	≥ 64 µg/mL
N#C/C(=C\c1cc(-c2ccc(Cl)c(Cl)c2)ccc1F)S(=O)(=O)c1ccccn1	16 µg/mL	32 µg/mL (≈ 73.9 µM)
Cc1ccc(S(=O)(=O)Nc2cccc(C=C(C#N)C#N)c2)cc1	64 µg/mL	≥ 64 µg/mL
N#CC(C#N)=Cc1cccc(Oc2ccc(F)cc2)c1	64 µg/mL	≥ 64 µg/mL
N#C/C(=C\c1cccc(Oc2ccc(Cl)c(Cl)c2)c1)C(=O)O	64 µg/mL	≥ 64 µg/mL
